{"source": "paper PMC10683027", "about": "“Discovery of tert-Butyl Ester Based 6-Diazo-5-oxo-L-norleucine Prodrugs for Enhanced Metabolic Stability and Tumor Delivery” (Journal of Medicinal Chemistry, 2023)", "key": {"[1]": {"settings": "CES1–/–, mouse, 1 h, 10 μM", "method": "(§1) Briefly, intestinal tissue was homogenized over ice via probe sonication with 1:9 tissue to potassium phosphate buffer (0.1 M) conditions. Prodrugs were spiked in plasma or tissue homogenate at 10 μM final concentration with 0.2% DMSO v/v and incubated in triplicate for 0 and 60 min time points. At each time point, 100 μL of the sample was precipitated with 300 μL of methanol containing internal standard (IS; losartan, 0.5 μM). Precipitated samples were vortexed (30 s) and centrifuged at 10000g for 10 min at 4 °C. After centrifugation, 100 μL of supernatant was aliquoted and submitted for analysis. Prodrug disappearance over time was monitored by liquid chromatography–mass spectrometry (LC–MS) through peak area ratios between the analyte and internal standard.\n(§2) Chromatographic analysis was performed on a Dionex ultra-high-performance LC system coupled with a Q Exactive Focus Orbitrap mass spectrometer (Thermo Fisher Scientific Inc., Waltham, MA). Separation was achieved using an Agilent Eclipse Plus column (100 × 2.1 mm i.d.; maintained at 35 °C) packed with a 1.8 μm C18 stationary phase. The mobile phase used was composed of 0.1% formic acid in acetonitrile and 0.1% formic acid in water with gradient elution, starting with 2.5% organic phase (from 0 to 0.25 min) and linearly increasing to 99% (from 0.25 to 1.25 min) and re-equilibrating to 2.5% by 4 min. The total run time for each analyte was 5 min. Pumps were operated at a flow rate of 0.4 mL/min. The mass spectrometer controlled by Xcalibur software 4.0.27.13 (Thermo Scientific) was operated with an HESI ion source in positive ionization mode for all compounds. Compounds were identified in the full-scan mode with m/z ranging from 75 to 1125."}, "[2]": {"settings": "CES1–/–, mouse, 1 h, 10 μM", "remark": "listed apart in the source", "method": "as §1, §2"}, "in vitro [3]": {"test": "in vitro", "settings": "CES1–/–, mouse, tissue homogenate", "method": "as §1, §2"}, "in vitro [4]": {"test": "in vitro", "settings": "CES1–/–, mouse, plasma", "method": "as §1, §2"}}, "data": [{"smiles": "CC(C)(C)OC(=O)[C@H](CCC(=O)C=[N+]=[N-])NC(=O)[C@H](Cc1c[nH]c2ccccc12)NC(=O)C12CCN(CC1)CC2", "note": "[Prodrug P8, tert-Butyl (S)-2-((S)-3-(1H-Indol-3-yl)-2-(quinuclidine-4-carboxamido)propanamido)-6-diazo-5-oxohexanoate]", "values": [{"measurement": "Intestinal homogenate", "setting": "[1]", "result": "71 ± 0"}, {"measurement": "Plasma", "setting": "[2]", "result": "106 ± 2"}, {"measurement": "remaining at 1 h, 10 µM", "setting": "in vitro [3]", "result": 71, "unit": "%"}, {"measurement": "remaining at 1 h, 10 µM", "setting": "in vitro [4]", "result": "106 ± 2", "unit": "%"}]}]}
